Laboratory results from PubChem BioAssay (NCI).
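Exposure lasted 48 hours, with cells grown in 96-well plates and compounds tested at five concentrations. Definition used: TGI = concentration required for complete inhibition of growth.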

Key:
Assay in all cases: NCI tumour cell line growth inhibition, 48 h
HOP-62 NSCLC = test system: HOP-62 NSCLC
OVCAR-3 ovarian = test system: OVCAR-3 ovarian
HCT-116 colon = test system: HCT-116 colon
KM20L2 colon = test system: KM20L2 colon
COLO 205 colon = test system: COLO 205 colon
HOP-92 NSCLC = test system: HOP-92 NSCLC
SK-MEL-2 melanoma = test system: SK-MEL-2 melanoma
ACHN renal = test system: ACHN renal
DLD-1 colon = test system: DLD-1 colon
IGROV1 ovarian = test system: IGROV1 ovarian
U251 CNS = test system: U251 CNS
LOX IMVI melanoma = test system: LOX IMVI melanoma
KM12 colon = test system: KM12 colon
OVCAR-5 ovarian = test system: OVCAR-5 ovarian
SK-MEL-28 melanoma = test system: SK-MEL-28 melanoma
UACC-257 melanoma = test system: UACC-257 melanoma
OVCAR-4 ovarian = test system: OVCAR-4 ovarian
SN12C renal = test system: SN12C renal
A549 NSCLC = test system: A549 NSCLC
786-0 renal = test system: 786-0 renal
MALME-3M melanoma = test system: MALME-3M melanoma
SF-295 CNS = test system: SF-295 CNS
SNB-78 CNS = test system: SNB-78 CNS
DMS 273 small cell lung = test system: DMS 273 small cell lung
HCT-15 colon = test system: HCT-15 colon
NCI-H226 lung = test system: NCI-H226 lung
SF-539 CNS = test system: SF-539 CNS
SK-OV-3 ovarian = test system: SK-OV-3 ovarian
HOP-18 NSCLC = test system: HOP-18 NSCLC
HL-60(TB) leukemia = test system: HL-60(TB) leukemia
K-562 leukemia = test system: K-562 leukemia
HCC-2998 colon = test system: HCC-2998 colon
NCI-H460 lung = test system: NCI-H460 lung
NCI-H522 lung = test system: NCI-H522 lung
XF 498 CNS = test system: XF 498 CNS
SNB-75 CNS = test system: SNB-75 CNS
M19-MEL melanoma = test system: M19-MEL melanoma
OVCAR-8 ovarian = test system: OVCAR-8 ovarian
DMS 114 small cell lung = test system: DMS 114 small cell lung
CAKI-1 renal = test system: CAKI-1 renal
HT29 colon = test system: HT29 colon
TK-10 renal = test system: TK-10 renal
CCRF-CEM leukemia = test system: CCRF-CEM leukemia
UACC-62 melanoma = test system: UACC-62 melanoma
SW-620 colon = test system: SW-620 colon
LXFL 529 NSCLC = test system: LXFL 529 NSCLC
EKVX NSCLC = test system: EKVX NSCLC
SF-268 CNS = test system: SF-268 CNS
M14 melanoma = test system: M14 melanoma
A498 renal = test system: A498 renal
SNB-19 CNS = test system: SNB-19 CNS
NCI-H23 lung = test system: NCI-H23 lung
SR leukemia = test system: SR leukemia
RXF 393 renal = test system: RXF 393 renal
UO-31 renal = test system: UO-31 renal
SK-MEL-5 melanoma = test system: SK-MEL-5 melanoma

For `Nc1nc(N)c(N=O)c(Nc2ccc(Br)cc2)n1`, the TGI (HOP-62 NSCLC) was 63.9 µM, the TGI (OVCAR-3 ovarian) was 79.3 µM and the TGI (HCT-116 colon) was 37.8 µM. For the same compound, the TGI (KM20L2 colon) was 95.7 µM, the TGI (COLO 205 colon) was 38.8 µM and the TGI (HOP-92 NSCLC) was over 100 µM. It also gave a TGI (SK-MEL-2 melanoma) of 49.6 µM, a TGI (ACHN renal) of 49.3 µM and a TGI (DLD-1 colon) of over 100 µM. The TGI (IGROV1 ovarian) was 39.4 µM, the TGI (U251 CNS) was 59 µM and the TGI (LOX IMVI melanoma) was 66.5 µM. For the same compound, the TGI (KM12 colon) was over 100 µM, the TGI (OVCAR-5 ovarian) was over 100 µM and the TGI (SK-MEL-28 melanoma) was 68.6 µM. For the same compound, the TGI (UACC-257 melanoma) was 77 µM, the TGI (OVCAR-4 ovarian) was over 100 µM and the TGI (SN12C renal) was over 100 µM. For the same compound, the TGI (A549 NSCLC) was over 100 µM, the TGI (786-0 renal) was over 100 µM and the TGI (MALME-3M melanoma) was 44.6 µM. The TGI (SF-295 CNS) was over 100 µM, the TGI (SNB-78 CNS) was over 100 µM and the TGI (DMS 273 small cell lung) was 79.5 µM. The TGI (HCT-15 colon) was over 100 µM, the TGI (NCI-H226 lung) was 92.7 µM and the TGI (SF-539 CNS) was 56.5 µM. It also gave a TGI (SK-OV-3 ovarian) of over 100 µM, a TGI (HOP-18 NSCLC) of over 100 µM and a TGI (HL-60(TB) leukemia) of over 100 µM. The TGI (K-562 leukemia) was over 100 µM, the TGI (HCC-2998 colon) was over 100 µM and the TGI (NCI-H460 lung) was over 100 µM. It also gave a TGI (NCI-H522 lung) of over 100 µM, a TGI (XF 498 CNS) of 65.4 µM and a TGI (SNB-75 CNS) of 40.3 µM. For the same compound, the TGI (M19-MEL melanoma) was over 100 µM, the TGI (OVCAR-8 ovarian) was over 100 µM and the TGI (DMS 114 small cell lung) was 52.1 µM. The TGI (CAKI-1 renal) was over 100 µM, the TGI (HT29 colon) was 52.3 µM and the TGI (TK-10 renal) was 70.4 µM. The TGI (CCRF-CEM leukemia) was over 100 µM, the TGI (UACC-62 melanoma) was 19.4 µM and the TGI (SW-620 colon) was over 100 µM. For the same compound, the TGI (LXFL 529 NSCLC) was over 100 µM, the TGI (EKVX NSCLC) was over 100 µM and the TGI (SF-268 CNS) was 57.1 µM. The TGI (M14 melanoma) was 52.8 µM, the TGI (A498 renal) was 35.2 µM and the TGI (SNB-19 CNS) was over 100 µM. For the same compound, the TGI (NCI-H23 lung) was over 100 µM and the TGI (SR leukemia) was over 100 µM.

Work on `Cn1ccnc1C(O)(c1nccn1C)c1nccn1C` yielded a TGI (HOP-62 NSCLC) of over 100 µM, a TGI (COLO 205 colon) of over 100 µM and a TGI (HOP-92 NSCLC) of over 100 µM. For the same compound, the TGI (SK-MEL-2 melanoma) was over 100 µM, the TGI (ACHN renal) was over 100 µM and the TGI (DLD-1 colon) was over 100 µM. It also gave a TGI (U251 CNS) of over 100 µM, a TGI (LOX IMVI melanoma) of over 100 µM and a TGI (KM12 colon) of over 100 µM. It also gave a TGI (OVCAR-5 ovarian) of over 100 µM, a TGI (SK-MEL-28 melanoma) of over 100 µM and a TGI (UACC-257 melanoma) of over 100 µM. For the same compound, the TGI (OVCAR-4 ovarian) was over 100 µM, the TGI (SN12C renal) was over 100 µM and the TGI (MALME-3M melanoma) was over 100 µM. It also gave a TGI (SF-295 CNS) of over 100 µM, a TGI (SNB-78 CNS) of over 100 µM and a TGI (NCI-H226 lung) of over 100 µM. For the same compound, the TGI (HOP-18 NSCLC) was over 100 µM, the TGI (HL-60(TB) leukemia) was over 100 µM and the TGI (HCC-2998 colon) was over 100 µM. The TGI (NCI-H460 lung) was over 100 µM, the TGI (NCI-H522 lung) was over 100 µM and the TGI (XF 498 CNS) was over 100 µM. It also gave a TGI (SNB-75 CNS) of over 100 µM, a TGI (RXF 393 renal) of over 100 µM and a TGI (M19-MEL melanoma) of over 100 µM. It also gave a TGI (OVCAR-8 ovarian) of over 100 µM, a TGI (DMS 114 small cell lung) of over 100 µM and a TGI (CAKI-1 renal) of over 100 µM. It also gave a TGI (HT29 colon) of over 100 µM, a TGI (TK-10 renal) of over 100 µM and a TGI (SW-620 colon) of over 100 µM. The TGI (LXFL 529 NSCLC) was over 100 µM, the TGI (EKVX NSCLC) was over 100 µM and the TGI (SF-268 CNS) was over 100 µM. The TGI (M14 melanoma) was over 100 µM, the TGI (UO-31 renal) was over 100 µM and the TGI (SNB-19 CNS) was over 100 µM. For the same compound, the TGI (SK-MEL-5 melanoma) was over 100 µM, the TGI (NCI-H23 lung) was over 100 µM and the TGI (SR leukemia) was over 100 µM.
